In patent US6270780A, “Cosmetic compositions containing resveratrol” (Chesebrough-Pond's USA Co., division of Conopco, priority 1998, dated 2001):
Where two headings read alike, the source gives them in different places.

How the values were obtained:
ZR75 cells = experiment: 3H-thymidine incorporation (DNA synthesis) / proliferation of ZR75 cells, estrogen-like activity; type: cell-based, human
Text: The following test was employed to determine whether resveratrol has an estrogen-like activity:
The ZR75 cell line is a ductal breast carcinoma cell line, originally isolated from malignant mammary epithelium of a person (Engel et al., Human breast carcinoma cells in continuous culture: A review., Cancer Res., 38: 4327-4339, 1978). This cell line contains receptors for estrogen, progesterone and other steroid hormones, but responds through an increase in proliferation only to estrogen. The cell line contains high affinity estrogen-specific receptors. Therefore, this cell line is used for testing estrogen-like activity (Markiewicz et al., In vitro bioassays of non-steroidal phytoestrogens, J. Steroid Biochem. Molec. Biol., 45: 399-405, 1993)
Methodology Used for Determining the Rate of DNA Synthesis in Cells
The incorporation of ^3 H-thymidine by cultured cells was used as an assay of cell proliferation (both for ZR75 cells and for keratinocytes). Thymidine is one of four deoxynucleosides which are the monomeric units of DNA. Prior to cell division of a somatic cell, the complete genome of the cell undergoing cell division is replicated. This involves large scale DNA synthesis by the cell and enables both daughter cells to receive identical copies of the genetic material. When ^3 H-thymidine is included in the culture media of cells which are synthesizing DNA in preparation for cell division then the labeled thymidine is incorporated into the newly synthesized DNA. The extent of incorporation of ^3 H-thymidine into a population of cells is proportional to the rate of DNA synthesis by this population of cells and therefore an indication of their cellular proliferation.
ZR75 cells (from American Type Culture Collection, Rockville, Md.) were grown in RPMI1640 media (from Gibco Life Technologies) with 10% fetal bovine serum (FBS) , 100 units penicillin per ml and 100 units of streptomycin per ml. All incubations were performed at 37° C. in 5% CO2. […] The cells were seeded at a density of one million per 75 cm2 flask. For the experiment, the cells were seeded in 24 well plates at 100,000 cells per ml per well.
After growing for 24 hours, the media was removed, the cells were washed with PBS (phosphate buffered saline, 0.01 M sodium phosphate, 0.138 M sodium chloride, 0.0027 M potassium chloride, pH 7.4) and 1 ml of RPMI 1640 without serum (but with streptomycin and penicillin) was added. Stock solutions of resveratrol in dimethyl sulfoxide (DMSO) and estradiol in water were prepared. […] After another 24 hours, one μCi of [methyl-3H] thymidine was added to each well. The media was removed after 24 hours. The cells were washed once in PBS, the PBS was removed completely and the cells were left on ice to incubate with 1 ml per well of 10% TCA (trichloroacetic acid) for 30 minutes. The plates were washed 3 times with 5% TCA to remove all traces of thymidine which wasn't incorporated into the cells. 500 μl of 0.1M sodium hydroxide was added to each well and the plates were incubated at room temperature for at least 30 minutes. 250 μl of each sample was transferred to scintillation vials and after adding 5 mL of counting fluid, the vials were counted for 5 minutes each on a setting for tritium. […] Values were expressed as mean of quadruplicate wells +/- standard deviation.

Transglutaminase (TG-1) = experiment: ELISA based TG-1 assay, differentiation of keratinocytes; type: cell-based, human
Text: Methodology for Transglutaminase Measurement
During the process of terminal differentiation in the epidermis, a 15 nm thick layer of protein, known as the cornified envelope (CE) is formed on the inner surface of the cell periphery. The CE is composed of numerous distinct proteins which have been cross-linked together by the formation of N-((-glutamyl) lysine isodipeptide bonds catalyzed by the action of at least two different transglutaminases expressed in the epidermis. Transglutaminase (TG-1) is expressed in abundance in the differentiated layers of the epidermis, especially the granular layer, but is absent in the undifferentiated basal epidermis. Thus, TG-1 is a useful marker of epidermal keratinocyte differentiation with high TG-1 levels indicating a more differentiated state. An ELISA based TG-1 assay, using a TG-1 antibody, was used to assess the state of differentiation of the cultured keratinocytes in the examples that follow.
The level of TG-1 was measured as follows. Keratinocytes were obtained as described in Example 2. For the experiment, about 30,000 cells were plated into each well of 6 well plates and grown for five days, until the cells reach about 20-30% confluence. 2 ml/well of fresh KGM were added daily with 2 μl of 2-50 mM resveratrol in DMSO for 3 days. Control wells also received 2 μl of DMSO. After 3 days of treatment, cells were washed twice with PBS and placed in freezer for 2 hours. Cells were then thawed for 2 hours. DNA content of the cells were quantitated by using the DNA binding flurophore, bis-benzimidazole (Hoechst 33258) and measuring the specific fluorescence of the DNA-bound flurophore at 450 nm (excitation at 360 nm).
TG-1 levels of the cells in the wells were determined using the TG-1 specific monoclonal antibody (BC1) (first antibody) (obtained from Amersham Life Sciences) and using a peroxidase labeled rabbit antimouse IgG fragment (second antibody). The plates were blocked by 5% nonfat milk in TBS (Tris buffered saline, 0.01 M Tris, 0.150 M sodium chloride, pH 8.0) for one hour followed by 2 hour incubation with the first antibody (1:4,000 fold dilution) in 1% milk/TBS at room temperature. After rinsing the plates three times with 1% milk/TBS containing 0.05% Tween 20, the plates were incubated with 1:4000 dilution of the second antibody at room temperature for two hours. The plates were rinsed three times with 1% milk/TBS/Tween and three times with TBS. Color was developed by incubation with o-phenylene diamine and hydrogen peroxide. The absorbance was read at 492 nm on a Ultrospec 3000 spectrophotometer (Pharmacia Biotech) and TG-1 levels were calculated as Abs/DNA fluorescence. The mean±standard deviation of at least 3 separate wells were used for calculation and statistical analysis of the data. Values were expressed as absorbance for TG-1 per arbitrary unit of DNA fluorescence of triplicate wells±standard deviation. Results were also expressed as % of control.

[1] = Homo sapiens, ZR75, read-out: DNA synthesis (% of Control), EXPT 1, control DMSO
[2] = Homo sapiens, ZR75, read-out: DNA synthesis (% of Control), EXPT 2, control DMSO

Compound `Oc1ccc(/C=C/c2cc(O)cc(O)c2)cc1` [Resveratrol, 3,4'5-stilbenetriol] has an activity at 0.5 µM (ZR75 cells; [1]) of 69.7 ± 10%, an activity at 1 µM (ZR75 cells; [1]) of 58.8 ± 9% and an activity at 10 µM (ZR75 cells; [1]) of 208 ± 32.5%. The activity at 20 µM (ZR75 cells; [1]) was 135 ± 21.4%, the activity at 40 µM (ZR75 cells; Homo sapiens, ZR75, read-out: DNA synthesis (% of Control), EXPT 1, 40 μM, control DMSO) was 60.8 ± 26.4% and the activity at 50 µM (ZR75 cells; Homo sapiens, ZR75, read-out: DNA synthesis (% of Control), EXPT 1, 50 μM, control DMSO) was 4.1 ± 1.4%. For the same compound, the activity at 0.5 µM (ZR75 cells; [2]) was 56.8 ± 4.2%, the activity at 1 µM (ZR75 cells; [2]) was 60.5 ± 3.6% and the activity at 5 µM (ZR75 cells; Homo sapiens, ZR75, read-out: DNA synthesis (% of Control), EXPT 2, 5 μM, control DMSO) was 159 ± 4.1%. It also gave an activity at 10 µM (ZR75 cells; [2]) of 163 ± 13.7%, an activity at 15 µM (ZR75 cells; Homo sapiens, ZR75, read-out: DNA synthesis (% of Control), EXPT 2, 15 μM, control DMSO) of 119 ± 2.5% and an activity at 20 µM (ZR75 cells; [2]) of 68 ± 3.9%. The “proliferation of ZR 75 cells” value (ZR75 cells; concentration from 5 to 20 μM) was “increased proliferation of ZR 75 cells”, the “transglutaminase expression of keratinocytes vs control” value (Transglutaminase (TG-1); Experiment 1, 10 μM) was “not significantly different from control” and the “TG-1 levels/μg DNA” value (Transglutaminase (TG-1); Experiment 1, 10 μM, 3 days) was 8.49 ± 1.77 /μg DNA. The “TG-1 levels/μg DNA” value (Transglutaminase (TG-1); Experiment 1, 25 μM, 3 days) was 10.92 ± 2.29 /μg DNA, the “TG-1 levels/μg DNA” value (Transglutaminase (TG-1); Experiment 1, 50 μM, 3 days) was 22.2 ± 1.50 /μg DNA and the “TG-1 levels/μg DNA” value (Transglutaminase (TG-1); Experiment 2, 2 μM, 3 days) was 3.42 ± 0.42 /μg DNA. The “TG-1 levels/μg DNA” value (Transglutaminase (TG-1); Experiment 2, 5 μM, 3 days) was 3.51 ± 0.41 /μg DNA, the “TG-1 levels/μg DNA” value (Transglutaminase (TG-1); Experiment 2, 10 μM, 3 days) was 3.61 ± 0.17 /μg DNA and the “TG-1 levels/μg DNA” value (Transglutaminase (TG-1); Experiment 2, 25 μM, 3 days) was 4.69 ± 0.21 /μg DNA. For the same compound, the “TG-1 levels/μg DNA” value (Transglutaminase (TG-1); Experiment 2, 50 μM, 3 days) was 4.65 ± 0.46 /μg DNA, the keratinocyte differentiation (Transglutaminase (TG-1); Experiment 2, all concentrations of 2 μM and higher) was “significantly increased keratinocyte differentiation” and the activity at 10 µM (Transglutaminase (TG-1); Homo sapiens, Keratinocyte, 72 h, Experiment 1, 10 μM, 3 days, read-out: TG-1 levels, % of control) was 126%. It also gave an activity at 25 µM (Transglutaminase (TG-1); Homo sapiens, Keratinocyte, 72 h, Experiment 1, 25 μM, 3 days, read-out: TG-1 levels, % of control) of 162%, an activity at 50 µM (Transglutaminase (TG-1); Homo sapiens, Keratinocyte, 72 h, Experiment 1, 50 μM, 3 days, read-out: TG-1 levels, % of control) of 329% and an activity at 2 µM (Transglutaminase (TG-1); Homo sapiens, Keratinocyte, 72 h, Experiment 2, 2 μM, 3 days, read-out: TG-1 levels, % of control) of 179%. The activity at 5 µM (Transglutaminase (TG-1); Homo sapiens, Keratinocyte, 72 h, Experiment 2, 5 μM, 3 days, read-out: TG-1 levels, % of control) was 184%, the activity at 10 µM (Transglutaminase (TG-1); Homo sapiens, Keratinocyte, 72 h, Experiment 2, 10 μM, 3 days, read-out: TG-1 levels, % of control) was 189% and the activity at 25 µM (Transglutaminase (TG-1); Homo sapiens, Keratinocyte, 72 h, Experiment 2, 25 μM, 3 days, read-out: TG-1 levels, % of control) was 246%. For the same compound, the activity at 50 µM (Transglutaminase (TG-1); Homo sapiens, Keratinocyte, 72 h, Experiment 2, 50 μM, 3 days, read-out: TG-1 levels, % of control) was 243% and the “transglutaminase expression of keratinocytes” value (Transglutaminase (TG-1); all other concentrations) was “significantly increased transglutaminase expression of keratinocytes”.
